Experimental data reported in publication PMC9442914, “Antidiabetic potential of Lysiphyllum strychnifolium (Craib) A. Schmitz compounds in human intestinal epithelial Caco-2 cells and molecular docking-based approaches” (BMC Complementary Medicine and Therapies, 2022).
Entries after “also recorded” stand apart in the source; their conditions may differ.

Columns and labels:
[1] = DPPH radical scavenging assay; conditions: mean ± SEM
Procedure: The method by Kumar, Sanjiv et al. was adopted for DPPH (2,2-diphenyl-1-picrylhydrazyl) assays with slight modifications. Briefly, DPPH solution (100 µl) and extract solution (100 µl) were added to a 96-well microplate and thoroughly mixed. The absorbance was measured at 517 nm after a 30-minute incubation time at room temperature.

ABTS scavenging assay = conditions: mean ± SEM
[2] = tested on: α-glucosidase in Caco-2 cells; test: Inhibition of α-glucosidase activity in Caco-2 cell monolayer; assay type: cell-based, human; conditions: apical side of Caco-2 monolayer; 31.25 and 62.50 ug/ml tested, concentration of the values not given
Procedure: (§1) Caco-2 cells were obtained from the American Type Culture Collection (ATCC). The cells were cultured in DMEM with 10% FBS and 1% penicillin–streptomycin solution and were maintained at 37 °C in a humidified environment of 95% air and 5% CO2. For the viability test, the Caco-2 cells were seeded on 96-well plates, and 24-well Transwell plates were used to determine α-glucosidase inhibition. […] Fresh media was supplied to the cells every two days during this period.
Caco-2 cells were seeded in 24-transwell plates at a density of 10,000 cells per well for 21 days. The cells were washed in 1X PBS after the culture media was removed. […] At the same time, the lower chamber was filled with glucose-free medium (500 µl). Then, 50 µl of culture media from the upper chamber was taken and measured by the glucose oxidase method.

GLUT2 mRNA = test: Transcription of GLUT2 mRNA in Caco-2 cells (RT-PCR); assay type: cell-based, human; conditions: 62.50 µg/ml, normalized to GAPDH
Procedure: (§2) RNA was extracted from Caco-2 cells using an RNA extraction kit (QIAGEN, Hilden, Germany). Reverse transcription was performed with SuperScript III Reverse Transcriptionase (Thermo Fisher Scientific, Waltham, USA). cDNA was synthesized from 2 µg of total RNA according to the manufacturer’s instructions. Then, the cDNA was maintained at − 20°C for further analysis by real-time PCR. The specific primers used in the experiment were as follows: SGLT1, 5’-[…]-3’ (forward) and 3’-[…]-5’ (reverse); GLUT2, 5’-[…]-3’ (forward) and 3’-[…]-5’ (reverse); GLUT5, 5’- […]-3’ (forward) and 3’-[…]-5’ (reverse). All conditions were performed in triplicate with 3 independent experiments. The real-time qPCR mixture (10 µL) comprised 1 µL of DNA polymerase, template DNA (25 ng), 1 µL of DEPC, and 1.2 µL of forward and reverse primers. Thermal cycling (Applied Biosystems, Waltham, USA) consisted of (denaturation 95 °C for 20 s, annealing 63.3 °C for 30 s, and extension 72 °C for 20 s, 40 cycles. The gene expression data were normalized to the internal control gene GAPDH and then compared using comparative delta-delta Ct.

SGLT1 mRNA = test: Transcription of SGLT1 mRNA in Caco-2 cells (RT-PCR); assay type: cell-based, human; conditions: 62.50 µg/ml, normalized to GAPDH
Procedure: as §2

GLUT5 mRNA = test: Transcription of GLUT5 mRNA in Caco-2 cells (RT-PCR); assay type: cell-based, human; conditions: 62.50 µg/ml, normalized to GAPDH
Procedure: as §2

Caco-2 cells = test: Cell viability assay (MTT) in Caco-2 cells; assay type: cell-based, human; conditions: concentrations from 0 to 62.50 ug/ml, 24 h
Procedure: as §1
Caco-2 cells were obtained from the American Type Culture Collection (ATCC). The cells were grown in complete medium (DMEM with 10% FBS, 100 units/mL penicillin, and 100 µg/mL streptomycin) and plated at a density of 10,000 cells per well in 96-well plates for 21 days. Then, the cells were treated with extracts at concentrations ranging from […] for another 24 h. DMSO (0.1%) was added to the control group. The MTT test was used to measure cell viability after treatment. In a 96-well plate, 100 µl of MTT at a concentration of 0.5 mg/ml was applied to each well. The MTT solution was withdrawn after 3 h of incubation at 37 °C, and formazan crystals were dissolved in 100 µl of DMSO. At 570 nm, the purple color that was generated was detected spectrophotometrically (with a reference OD of 690). Prism 6 software was used to calculate cell viability. The appropriate concentration of extracts was chosen for future experiments.

Row | SMILES | EC50 [1] | EC50 (ABTS scavenging assay) | α-glucosidase activity compared with untreated cells [2] | Transcription of GLUT2 gene (mRNA) (GLUT2 mRNA) | Transcription of SGLT1 gene (mRNA) (SGLT1 mRNA) | Transcription of GLUT5 gene (mRNA) (GLUT5 mRNA) | Cytotoxicity to Caco-2 cells (MTT) (Caco-2 cells)
1 | O=C1O[C@H]([C@@H](O)CO)C(O)=C1O [Ascorbic acid, ascorbic acid, reference compound] | 30.38 ± 0.18 µM | 25.1 ± 0.19 µM | – | – | – | – | –
2 | C[C@@H]1O[C@@H](Oc2coc3cc(O)cc(O)c3c2=O)[C@H](O)[C@H](O)[C@H]1O [Compound 1, 3,5,7-trihydroxychromone-3-O-α-L-rhamnopyranoside] | 5.22 ± 0.2 µM | 10.3 ± 0.2 µM | 59.75% | downregulated | downregulated | downregulated | without cytotoxicity; also recorded: not cytotoxic
3 | C[C@H]1O[C@H](O[C@H]2[C@H](O)[C@@H](O)[C@@H](O[C@H]3[C@H](O)[C@@H](O)C(O)O[C@@H]3CO)O[C@@H]2CO)[C@H](O)[C@@H](O)[C@@H]1N[C@H]1C=C(CO)[C@@H](O)[C@H](O)[C@H]1O (stereo partly drawn) [Acarbose, acarbose, reference compound] | – | – | – | downregulated | downregulated | downregulated | –
